{"source": "patent US20060019951A1", "about": "“Vacuolins” (CBR Institute for Biomedical Research, priority 2002, published 2006)", "test_system": "vacuole formation in cells exposed to a vacuolin", "experiment": "Conditions under which vacuole formation is blocked in cells exposed to a vacuolin", "format": "cell-based", "conditions": "FIGS. 8-10", "text": "Additional studies were directed at identifying conditions under which vacuole formation is blocked (see, for example, FIGS. 8-10). […] It is likely that the intravacuolar pH is higher than the low pH of lysosomes; the vacuoles are likely to accumulate Cl ions (see, for example, FIG. 11).", "data": [{"smiles": "CO/C1=C\\C(C)=C\\[C@@H](C)[C@@H](O)[C@@H](C)C/C(C)=C/C=C/[C@H](OC)[C@@H]([C@@H](C)[C@@H](O)[C@H](C)[C@@]2(O)C[C@@H](O)[C@H](C)[C@@H](C(C)C)O2)OC1=O", "note": "[bafilomycin A]", "values": [{"measurement": "effect on vacuole formation in cells exposed to a vacuolin", "result": "inhibited"}]}]}
